Values quoted from earlier work, collected in patent US11136326B2, “Pyrrolopyrimidine derivatives as TAM inhibitors” (Incyte Corporation, priority 2015, dated 2021).

Tested on: NK cells

For `CCOc1cn(-c2ccc(F)cc2C)nc1C(=O)Nc1ccc(Oc2ccnc3cc(OC)c(OC)cc23)c(F)c1` [LDC1267], the NK cell activation is listed as “activates NK cells”.
